# Measured values published in patent publication US10898595B2, “Core-satellite nanocomposites for MRI and photothermal therapy” (The Regents of the University of Michigan, priority 2013, dated 2021).
# Tested on: SUM-159 tumors
# Assay: In vivo PTT using IONP-IR820
# Parameters: species or system mice
# Settings: 10 minutes
# Experimental: Tumor-bearing nude mice were randomly allocated into three groups (five mice in each group) when the solid SUM-159 tumors had grown to ˜80 mm3. Mice in each group were intravenously injected with IONP-IR820 (20 mg Fe/Kg mouse body weight), the same amount of IR820, the same amount of IONPs. 24 h post injection, tumors were irradiated with a diode laser (λ=885 nm) at a laser power of 0.5 W for 10 minutes. The highest tumor surface temperature was recorded by an infrared camera (FLIR Systems, i7, Boston, Mass.) before and after application of the laser.
# Mice were humanely euthanized by CO2 inhalation 24 h following a single I.V. bolus dose of nanoparticles. The harvested tissue was formalin-fixed, embedded in paraffin and sectioned. Unstained slides were dewaxed using xylene and rehydrated using graded alcohol. Rehydrated slides were stained with Hematoxylin and eosin (H&E staining) for visualization of nucleic acids and cytoplasm.
compound,measurement,setting,value
CC1(C)C(=CC=C2CCCC(C=CC3=[N+](CCCCS(=O)(=O)[O-])c4ccc5ccccc5c4C3(C)C)=C2Cl)N(CCCCS(=O)(=O)[O-])c2ccc3ccccc3c21.[Na+] [IR820],Tumor tissue hemorrhaging right after laser irradiation,"24 h post IV injection (20 mg Fe/Kg or same amount), 885 nm laser 0.5 W",does not have any obvious hemorrhaging
same,Average temperature increase at the tumor site,"24 h post IV injection, laser 0.5 W, infrared camera",8.3±0.8 °C
